System: recombinant NL4-3 virus (Renilla luciferase in nef, Gag P373S)
Experiment: HIV cell culture assay (luciferase activity in MT-2 cells infected with NLRluc recombinant virus)
Type: cell-based
Conditions: NL43, MT-2 cells infected 4-5 days with NLRluc recombinant virus
Experimental: HIV cell culture assay—MT-2 cells and 293T cells were obtained from the NIH AIDS Research and Reference Reagent Program. MT-2 cells were propagated in RPMI 1640 media supplemented with 10% heat inactivated fetal bovine serum, […]. The 293T cells were propagated in DMEM media supplemented with 10% heat inactivated fetal bovine serum (FBS), 100 units/ml penicillin G and 100 μg/ml streptomycin. The proviral DNA clone of NL4-3 was obtained from the NIH AIDS Research and Reference Reagent Program. A recombinant NL4-3 virus, in which a section of the nef gene from NL4-3 was replaced with the Renilla luciferase gene, was used as a reference virus. In addition, residue Gag P373 was converted to P373S. Briefly, the recombinant virus was prepared by transfection of the altered proviral clone of NL4-3. Transfections were performed in 293T cells using LipofectAMINE PLUS from Invitrogen (Carlsbad, Calif.), according to manufacturer's instruction. The virus was titered in MT-2 cells using luciferase enzyme activity as a marker. Luciferase was quantitated using the Dual Luciferase kit from Promega (Madison, Wis.), with modifications to the manufacturer's protocol. The diluted Passive Lysis solution was pre-mixed with the re-suspended Luciferase Assay Reagent and the re-suspended Stop & Glo Substrate (2:1:1 ratio). Fifty (50) μL of the mixture was added to each aspirated well on assay plates and luciferase activity was measured immediately on a Wallac TriLux (Perkin-Elmer). Antiviral activities of inhibitors toward the recombinant virus were quantified by measuring luciferase activity in cells infected for 4-5 days with NLRluc recombinants in the presence serial dilutions of the inhibitor. Table 1 is the key for the data in Table 2.

Row | SMILES | EC50 (class symbol) | EC50 (numeric value)
1 | C=C(C)[C@@H]1CC[C@]2(CNCCN(CCO)CCO)CC[C@]3(C)[C@H](CC[C@@H]4[C@@]5(C)CC=C(c6ccc(C(=O)O)cc6)C(C)(C)[C@@H]5CC[C@]43C)[C@@H]12 [Example 24, 4-((1R,3aS,5aR,5bR,7aR,11aS,11bR,13aR,13bR)-3a-((2-(bis(2-hydroxyethyl)amino)ethylamino)methyl)-5a,5b,8,8,11a-pentamethyl-1-(prop-1-en-2-yl)-2,3,3a,4,5,5a,5b,6,7,7a,8,11,11a,11b,12,13,13a,13b-octadecahydro-1H-cyclopenta[a]chrysen-9-yl)benzoic acid] | < 100 nM | –
2 | C=C(C)[C@@H]1CC[C@]2(CNC(=O)CCN(C)C)CC[C@]3(C)[C@H](CC[C@@H]4[C@@]5(C)CC=C(c6ccc(C(=O)O)cc6)C(C)(C)[C@@H]5CC[C@]43C)[C@@H]12 [Example 142, 4-((1R,3aS,5aR,5bR,7aR,11aS,11bR,13aR,13bR)-3a-((3-(dimethylamino)propanamido)methyl)-5a,5b,8,8,11a-pentamethyl-1-(prop-1-en-2-yl)-2,3,3a,4,5,5a,5b,6,7,7a,8,11,11a,11b,12,13,13a,13b-octadecahydro-1H-cyclopenta[a]chrysen-9-yl)benzoic acid] | < 100 nM | –
3 | C=C(C)[C@@H]1CC[C@]2(CNCCC(=O)O)CC[C@]3(C)[C@H](CC[C@@H]4[C@@]5(C)CC=C(c6ccc(C(=O)O)cc6)C(C)(C)[C@@H]5CC[C@]43C)[C@@H]12 [Example 64, 4-((1R,3aS,5aR,5bR,7aR,11aS,11bR,13aR,13bR)-3a-((2-carboxymethylamino)methyl)-5a,5b,8,8,11a-pentamethyl-1-(prop-1-en-2-yl)-2,3,3a,4,5,5a,5b,6,7,7a,8,11,11a,11b,12,13,13a,13b-octadecahydro-1H-cyclopenta[a]chrysen-9-yl)benzoic acid] | < 100 nM | –
4 | C=C(C)[C@@H]1CC[C@]2(CNCCN3CCC(CO)CC3)CC[C@]3(C)[C@H](CC[C@@H]4[C@@]5(C)CC=C(c6ccc(C(=O)O)cc6)C(C)(C)[C@@H]5CC[C@]43C)[C@@H]12 [Example 181, 4-((1R,3aS,5aR,5bR,7aR,11aS,11bR,13aR,13bR)-3a-((2-(4-(hydroxymethyl)piperidin-1-yl)ethylamino)methyl)-5a,5b,8,8,11a-pentamethyl-1-(prop-1-en-2-yl)-2,3,3a,4,5,5a,5b,6,7,7a,8,11,11a,11b,12,13,13a,13b-octadecahydro-1H-cyclopenta[a]chrysen-9-yl)benzoic acid] | – | 1 nM
5 | C=C(C)[C@@H]1CC[C@]2(CNCC(c3cccnc3)N(C)C)CC[C@]3(C)[C@H](CC[C@@H]4[C@@]5(C)CC=C(c6ccc(C(=O)O)cc6)C(C)(C)[C@@H]5CC[C@]43C)[C@@H]12 (stereo partly drawn) [Example 10, 4-((1R,3aS,5aR,5bR,7aR,11aS,11bR,13aR,13bR)-3a-((2-(dimethylamino)-2-(pyridin-3-yl)ethylamino)methyl)-5a,5b,8,8,11a-pentamethyl-1-(prop-1-en-2-yl)-2,3,3a,4,5,5a,5b,6,7,7a,8,11,11a,11b,12,13,13a,13b-octadecahydro-1H-cyclopenta[a]chrysen-9-yl)benzoic acid] | – | 4 nM
6 | C=C(C)[C@@H]1CC[C@]2(CNCCOC)CC[C@]3(C)[C@H](CC[C@@H]4[C@@]5(C)CC=C(c6ccc(C(=O)O)cc6)C(C)(C)[C@@H]5CC[C@]43C)[C@@H]12 [Example 180, 4-((1R,3aS,5aR,5bR,7aR,11aS,11bR,13aR,13bR)-3a-((2-methoxyethylamino)methyl)-5a,5b,8,8,11a-pentamethyl-1-(prop-1-en-2-yl)-2,3,3a,4,5,5a,5b,6,7,7a,8,11,11a,11b,12,13,13a,13b-octadecahydro-1H-cyclopenta[a]chrysen-9-yl)benzoic acid] | < 100 nM | –
7 | C=C(C)[C@@H]1CC[C@]2(CNC(=O)NCCN3CCS(=O)(=O)CC3)CC[C@]3(C)[C@H](CC[C@@H]4[C@@]5(C)CC=C(c6ccc(C(=O)O)cc6)C(C)(C)[C@@H]5CC[C@]43C)[C@@H]12 [Example 161, 4-((1R,3aS,5aR,5bR,7aR,11aS,11bR,13aR,13bR)-3a-((((2-(1,1-dioxido-4-thiomorpholinyl)ethyl)carbamoyl)amino)methyl)-1-isopropenyl-5a,5b,8,8,11a-pentamethyl-2,3,3a,4,5,5a,5b,6,7,7a,8,11,11a,11b,12,13,13a,13b-octadecahydro-1H-cyclopenta[a]chrysen-9-yl)benzoic acid] | < 100 nM | –
8 | C=C(C)[C@@H]1CC[C@]2(CNCCC(=O)N3CCC(F)(F)CC3)CC[C@]3(C)[C@H](CC[C@@H]4[C@@]5(C)CC=C(c6ccc(C(=O)O)cc6)C(C)(C)[C@@H]5CC[C@]43C)[C@@H]12 [Example 117, 4-((1R,3aS,5aR,5bR,7aR,11aS,11bR,13aR,13bR)-3a-((3-(4,4-difluoropiperidin-1-yl)-3-oxopropylamino)methyl)-5a,5b,8,8,11a-pentamethyl-1-(prop-1-en-2-yl)-2,3,3a,4,5,5a,5b,6,7,7a,8,11,11a,11b,12,13,13a,13b-octadecahydro-1H-cyclopenta[a]chrysen-9-yl)benzoic acid] | < 100 nM | –
9 | C=C(C)[C@@H]1CC[C@]2(CNCC(O)CN3CCCC3=O)CC[C@]3(C)[C@H](CC[C@@H]4[C@@]5(C)CC=C(c6ccc(C(=O)O)cc6)C(C)(C)[C@@H]5CC[C@]43C)[C@@H]12 (stereo partly drawn) [Example 81, 4-((1R,3aS,5aR,5bR,7aR,11aS,11bR,13aR,13bR)-3a-((2-hydroxy-3-(2-oxopyrrolidin-1-yl)propylamino)methyl)-5a,5b,8,8,11a-pentamethyl-1-(prop-1-en-2-yl)-2,3,3a,4,5,5a,5b,6,7,7a,8,11,11a,11b,12,13,13a,13b-octadecahydro-1H-cyclopenta[a]chrysen-9-yl)benzoic acid] | < 100 nM | –
10 | C=C(C)[C@@H]1CC[C@]2(CNCCCCN3CCS(=O)(=O)CC3)CC[C@]3(C)[C@H](CC[C@@H]4[C@@]5(C)CC=C(c6ccc(C(=O)O)cc6)C(C)(C)[C@@H]5CC[C@]43C)[C@@H]12 [Example 76, 4-((1R,3aS,5aR,5bR,7aR,11aS,11bR,13aR,13bR)-3a-(((4-(1,1-dioxido-4-thiomorpholinyl)butyl)amino)methyl)-1-isopropenyl-5a,5b,8,8,11a-pentamethyl-2,3,3a,4,5,5a,5b,6,7,7a,8,11,11a,11b,12,13,13a,13b-octadecahydro-1H-cyclopenta[a]chrysen-9-yl)benzoic acid] | < 100 nM | –
11 | C=C(C)[C@@H]1CC[C@]2(CNC(=O)Nc3cccnc3)CC[C@]3(C)[C@H](CC[C@@H]4[C@@]5(C)CC=C(c6ccc(C(=O)O)cc6)C(C)(C)[C@@H]5CC[C@]43C)[C@@H]12 [Example 159, 4-((1R,3aS,5aR,5bR,7aR,11aS,11bR,13aR,13bR)-5a,5b,8,8,11a-pentamethyl-1-(prop-1-en-2-yl)-3a-((3-pyridin-3-ylureido)methyl)-2,3,3a,4,5,5a,5b,6,7,7a,8,11,11a,11b,12,13,13a,13b-octadecahydro-1H-cyclopenta[a]chrysen-9-yl)benzoic acid] | – | 10 nM
12 | C=C(C)[C@@H]1CC[C@]2(CNCCCN3CCS(=O)(=O)CC3)CC[C@]3(C)[C@H](CC[C@@H]4[C@@]5(C)CC=C(c6ccc(C(=O)O)cc6)C(C)(C)[C@@H]5CC[C@]43C)[C@@H]12 [Example 14, 4-((1R,3aS,5aR,5bR,7aR,11aS,11bR,13aR,13bR)-5a,5b,8,8,11a-pentamethyl-1-(prop-1-en-2-yl)-3a-((3-(1-dioxo-thiomorpholino)propylamino)methyl)-2,3,3a,4,5,5a,5b,6,7,7a,8,11,11a,11b,12,13,13a,13b-octadecahydro-1H-cyclopenta[a]chrysen-9-yl)benzoic acid] | < 100 nM | –
13 | C=C(C)[C@@H]1CC[C@]2(CNCCCN3CCCC3=O)CC[C@]3(C)[C@H](CC[C@@H]4[C@@]5(C)CC=C(c6ccc(C(=O)O)cc6F)C(C)(C)[C@@H]5CC[C@]43C)[C@@H]12 [Example 87, 3-fluoro-4-((1R,3aS,5aR,5bR,7aR,11aS,11bR,13aR,13bR)-5a,5b,8,8,11a-pentamethyl-3a-((3-(2-oxopyrrolidin-1-yl)propylamino)methyl)-1-(prop-1-en-2-yl)-2,3,3a,4,5,5a,5b,6,7,7a,8,11,11a,11b,12,13,13a,13b-octadecahydro-1H-cyclopenta[a]chrysen-9-yl)benzoic acid] | < 100 nM | –
14 | C=C(C)[C@@H]1CC[C@]2(CNC(=O)NCCN3CCCC3=O)CC[C@]3(C)[C@H](CC[C@@H]4[C@@]5(C)CC=C(c6ccc(C(=O)O)cc6)C(C)(C)[C@@H]5CC[C@]43C)[C@@H]12 [Example 154, 4-((1R,3aS,5aR,5bR,7aR,11aS,11bR,13aR,13bR)-5a,5b,8,8,11a-pentamethyl-3a-((3-(2-(2-oxopyrrolidin-1-yl)ethyl)ureido)methyl)-1-(prop-1-en-2-yl)-2,3,3a,4,5,5a,5b,6,7,7a,8,11,11a,11b,12,13,13a,13b-octadecahydro-1H-cyclopenta[a]chrysen-9-yl)benzoic acid] | < 100 nM | –
